EP0475411B1, “Novel carbocyclic adenosine analogs useful as immunosuppressants” (Aventis Pharmaceuticals Inc., priority 1990, dated 1992)
Where a name gives a salt, the structure may show the parent alone. Read-outs that look alike come from different tables or passages of the source.

How the values were obtained:
rat PMNs = assay: Inhibition of priming of rat PMN (PMA + rrIFN-γ or rHuIL-1), Superoxide Anion (O2-) assay; format: cell-based; settings: PMA 200 ηg/mL, compound 0 to 1000 µM, superoxide anion readout
Method: The rat air pouch model of inflammation was used to obtain rat PMNs using 25ηg/pouch of recombinant human interleukin-1 (rHuIL-1) to elicit the cells essentially according to the method of Esser et al. [Internat. J. Tissue Reactions XI, 291 (1989)]. PMNs were incubated along with phorbol myristate acetate (PMA)(200ηg/mL), which acts as a soluble stimulus, and rrIFN-γ (1000 Units/mL), which acts as a stimulatory lymphokine, or rHuIL-1 (500 Units/mL), which acts as a stimulatory cytokine, in the presence of various concentrations of (1S,3R)-Cis-1(9-adenyl)-3-hydroxycyclopentane (0 to 1000 µM). The degree of macrophage priming was measured using the Superoxide Anion (O2-) assay as described by Edwards et al. [Science 239, 769 (1988)].

[1] = test system: Rat peritoneal macrophages; assay: Inhibition of priming of rat peritoneal macrophages (opsonized zymosan + rrIFN-γ), Superoxide Anion (O2-) assay; format: cell-based; settings: opsonized zymosan 3 mg/mL, rrIFN-γ 1000 Units/mL; compound 0 to 1000 µM; superoxide anion readout; read-out: IC50 (inhibits the priming of rat macrophages in vitro)
Method: Rat peritoneal macrophages were isolated and grown in cell culture essentially as described by Edwards et al. [Science 239, 769 (1988)]. Macrophages were incubated along with opsonized zymosan (3 mg/mL), which acts as a particulate stimulus, and recombinant rat γ-interferon (rrIFN-y)(1000Units/mL), which acts as an activating lymphokine, in the presence of various concentrations of (1S,3R)-Cis-l(9-adenyl)-3-hydroxycyclopentane (0 to 1000µM). The degree of macrophage priming was measured using the Superoxide Anion (O2-) assay as described by Edwards et al. [Science 239, 769 (1988)].

Row | Compound | IC50 (rat PMNs; rHuIL-1 500 Units/mL, read-out: IC50 (inhibits the rHuIL-1 priming of rat PMN in vitro)) | IC50 (rat PMNs; rrIFN-γ 1000 Units/mL, read-out: IC50 (inhibits the rrIFN-γ priming of rat PMN in vitro)) | IC50 [1]
1 | Nc1ncnc2c1ncn2[C@H]1CC[C@@H](O)C1 [(1S,3R)-Cis-1-(9-adenyl)-3-hydroxycyclopentane hydrochloride] | 1 nM | 1 nM | –
2 | (1S,3R)-Cis-l(9-adenyl)-3-hydroxy-4-cyclopentene | – | – | 2500 nM
